# What was measured:
# Type in all cases: physicochemical
# [1] = Slurry experiment (ageing in solvents, XRPD analysis)
# Procedure: (§1) XRPD measurements were performed with the X-ray powder diffractometer Bruker D8 Advance at room temperature using copper filled X-ray tube (40 kV×40 mA) as the X-ray source, CuKα (λ=1.5418 Å), a fixed 0.6 mm divergence slit, 0.0125 mm Ni filter and a 2.5° primary Soller slit, and a LynxEye 1-dimensional detector with a 2.5° secondary Soller slit. Data collection was done in 0.02° steps at a scan speed of 0.3°/s, in the range of 3-33° 2θ.
# Samples of 20 mg of crystalline form 5 (water content 0.3-0.6) of compound (I) were dispensed in 300 μl of various solvents defined in Table 13 at room temperature (RT) or at 40° C. under magnetic stirring (600-1000 rpm). The resulting suspensions were aged for 1 week at the respective temperatures. After the ageing period the samples were recovered, air-dried at RT and analyzed by XRPD.
# [2] = Storage at room temperature in a closed container, re-analysis by XRPD; details: two weeks
# Procedure: as §1
# Crystalline form 4 of compound (I) was stored at room temperature in a closed container.
# [3] = Grinding with water in a ball mill, XRPD analysis; details: 25-30 mg ground with 80 μl of water, Retsch ball mill, 1.5 h, 30 Hz
# Procedure: as §1
# 25-30 mg of crystalline form 3 of compound (I) was ground with 80 μl of water using a Retsch ball mill. Water addition was done in two steps, with total grinding time of 1.5 h and v=30 Hz.
smiles,measurement,setting,value
CS(=O)(=O)N1CCC(COc2coc(CN3Cc4ccccc4C3)cc2=O)CC1 [2-(isoindolin-2-ylmethyl)-5-((1-(methylsulfonyl)piperidin-4-yl)methoxy)-4H-pyran-4-one],solid form after ageing of the suspension (XRPD),"[1]; 20 mg in 300 μl of the solvents of Table 13, RT or 40° C., magnetic stirring, aged for 1 week",crystalline form 5 (water content 0.3)
"CS(=O)(=O)N1CCC(COc2coc(CN3Cc4ccccc4C3)cc2=O)CC1 [Crystalline form 4, 2-(isoindolin-2-ylmethyl)-5-((1-(methylsulfonyl)piperidin-4-yl)methoxy)-4H-pyran-4-one]",solid form after storage (XRPD),[2],mixture of crystalline form 4 and crystalline form 3
"CS(=O)(=O)N1CCC(COc2coc(CN3Cc4ccccc4C3)cc2=O)CC1 [crystalline form 3, 2-(isoindolin-2-ylmethyl)-5-((1-(methylsulfonyl)piperidin-4-yl)methoxy)-4H-pyran-4-one]",solid form after grinding with water (XRPD),[3],crystalline form 2
"CS(=O)(=O)N1CCC(COc2coc(CN3Cc4ccccc4C3)cc2=O)CC1 [form 5, 2-(isoindolin-2-ylmethyl)-5-((1-(methylsulfonyl)piperidin-4-yl)methoxy)-4H-pyran-4-one]",solid form stability in slurry,"[1]; suspensions in the solvents of Table 13, 1 week, RT or 40° C.",stable in conditions with lower water activity
